According to PMC11772769, “Selective cargo and membrane recognition by SNX17 regulates its interaction with Retriever” (EMBO Reports, 2024):

Assays:
[1] = Liposome co-sedimentation assay; assay type: binding; conditions: protein alone (2 μM) with PI3P-containing LUVs (1 mM), 25 mM Hepes pH 7.5, 200 mM NaCl, 1 h room temperature; Coomassie densitometry; mean ± SD
Method: All lipids were purchased from Avanti Polar Lipids, INC. (Alabaster, AL) and dissolved in a final 20:9 molar ratio of chloroform:methanol. The lipid composition of liposomes consisted of DOPC, DOPE, DOPS, 18:1 PI(3)P, and 1,2-dioleoyl-sn-glycero-3-phosphoethanolamine-N-(lissamine rhodamine B sulfonyl) (18:1 Liss Rhod PE) in a final molar ratio of 44.7:29.3:20.0:5.0:1.0, respectively. Vesicles were prepared using the same thin-film hydration method described for GUVs, followed by extrusion to get a more homogeneous vesicle population. A mini extruder (Avanti Polar Lipids) and Whatman Nucleopore track-etched membranes with a pore size of 0.4 μm (Cytiva) were used to obtain Large Unilamellar Vesicles (LUVs). The extrusion buffer (25 mM Hepes pH 7.5, 1 mM TCEP) was supplemented with 250 mM raffinose pentahydrate to produce vesicles filled with raffinose. These vesicles can be separated from the aqueous solution in co-sedimentation assays by centrifugation (Julkowska et al, [2013]). […]
For co-sedimentation experiments, the working buffer (25 mM Hepes pH 7.5, 200 mM NaCl, 1 mM TCEP), proteins (Retriever, HisSumo-SNX17, and His10-L2FBR or His10-LRP1ICD in a 2:2:4 μM ratio), and liposomes (1 mM final concentration) were sequentially mixed into 0.5 ml tubes. […] Quantification of signal intensity was determined using Empiria Studio Software (LI-COR). […]

VPS26C = target: T1, VPS26C (Homo sapiens, UniProt O14972); experiment: Isothermal titration calorimetry VPS26C with SNX17FERM-CT; assay type: binding; conditions: ITC, 30 μM VPS26C and 300 μM SNX17FERM-CT, 25 mM Hepes pH 7.5, 150 mM NaCl, 25 °C; also pull-down
T1 construct: His-Sumo3 (N, cleaved yes); made in house; host or cells: Escherichia coli BL21(DE3)
Method: Isothermal titration calorimetry (ITC) experiments were carried out on a Nano ITC calorimeter (TA Instruments). VPS26C and SNX17FERM-CT were dialyzed overnight at 4 °C against 25 mM Hepes pH 7.5, 150 mM NaCl, and 0.5 mM TCEP, and degassed for 30 min at 25 °C before titration. The titration experiments were conducted at 25 °C with one initial 1.5 μl injection followed by 19 injections of 2.5 μl with a spacing of 300 s between injections. To determine the heat of dilution similar injections of SNX17FERM-CT in buffer were carried out. The resulting titration data were analyzed using NanoAnalyze software (TA Instruments).

interaction with VPS26C (VPS26C): no direct interaction
Substance: SNX17: recombinant sorting nexin 17; His-Sumo3-SNX17 in co-sedimentation, SNX17FERM-CT in ITC
percentage of total protein bound to the pellet [1]: 64 ± 17%
